# Values of other authors, collected in patent US20240166770A1, “COMPOSITIONS AND METHODS FOR INHIBITION OF CELL-PENETRATING ANTIBODIES” (Yale University, priority 2019, published 2024).
# pIC50, pKi: −log10 of the molar value. Read-outs that look alike come from different tables or passages of the source.
# Assays:
# ENT2 [1] = biological target: T1, ENT2 (Homo sapiens, UniProt Q14542); settings: cited from earlier work
# T1 sequence (Q14542 1-456): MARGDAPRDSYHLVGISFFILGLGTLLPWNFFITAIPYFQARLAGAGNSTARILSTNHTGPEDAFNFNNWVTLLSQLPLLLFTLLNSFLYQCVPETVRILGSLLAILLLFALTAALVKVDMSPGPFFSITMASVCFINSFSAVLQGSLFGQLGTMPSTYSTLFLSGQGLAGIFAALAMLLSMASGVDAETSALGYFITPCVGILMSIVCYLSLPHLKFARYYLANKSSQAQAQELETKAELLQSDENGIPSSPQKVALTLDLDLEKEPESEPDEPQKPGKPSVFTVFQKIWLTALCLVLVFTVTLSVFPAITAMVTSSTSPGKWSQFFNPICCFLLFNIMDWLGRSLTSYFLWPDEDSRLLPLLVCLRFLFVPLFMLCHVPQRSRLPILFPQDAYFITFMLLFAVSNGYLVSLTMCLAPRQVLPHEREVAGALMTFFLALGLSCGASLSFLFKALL
# hENT4 [2] = biological target: T2, hENT4 (Homo sapiens, UniProt Q7RTT9); settings: cited from earlier work
# T2 sequence (Q7RTT9 1-530): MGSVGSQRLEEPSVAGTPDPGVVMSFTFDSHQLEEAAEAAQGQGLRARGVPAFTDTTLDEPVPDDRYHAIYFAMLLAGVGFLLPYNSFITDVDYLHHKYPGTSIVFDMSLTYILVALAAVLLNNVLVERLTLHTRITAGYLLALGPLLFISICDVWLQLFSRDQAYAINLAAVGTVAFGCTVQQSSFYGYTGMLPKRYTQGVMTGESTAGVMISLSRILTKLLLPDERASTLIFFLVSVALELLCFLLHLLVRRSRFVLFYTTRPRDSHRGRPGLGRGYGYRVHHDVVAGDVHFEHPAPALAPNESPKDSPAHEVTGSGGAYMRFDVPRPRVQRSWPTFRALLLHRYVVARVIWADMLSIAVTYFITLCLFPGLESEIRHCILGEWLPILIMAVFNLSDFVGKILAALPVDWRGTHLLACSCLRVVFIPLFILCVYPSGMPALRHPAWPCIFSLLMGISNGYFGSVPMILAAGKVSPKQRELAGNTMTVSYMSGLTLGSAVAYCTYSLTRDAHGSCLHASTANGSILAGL
# hENT4 [3] = biological target: T2, hENT4; settings: cited from earlier work; remark: listed apart in the source
# ENT2 [4] = biological target: T1, ENT2; settings: Visser et al. 2002; cited from earlier work
# hENT1 = biological target: T3, hENT1 (Homo sapiens, UniProt Q99808); settings: cited from earlier work
# T3 sequence (Q99808 1-456): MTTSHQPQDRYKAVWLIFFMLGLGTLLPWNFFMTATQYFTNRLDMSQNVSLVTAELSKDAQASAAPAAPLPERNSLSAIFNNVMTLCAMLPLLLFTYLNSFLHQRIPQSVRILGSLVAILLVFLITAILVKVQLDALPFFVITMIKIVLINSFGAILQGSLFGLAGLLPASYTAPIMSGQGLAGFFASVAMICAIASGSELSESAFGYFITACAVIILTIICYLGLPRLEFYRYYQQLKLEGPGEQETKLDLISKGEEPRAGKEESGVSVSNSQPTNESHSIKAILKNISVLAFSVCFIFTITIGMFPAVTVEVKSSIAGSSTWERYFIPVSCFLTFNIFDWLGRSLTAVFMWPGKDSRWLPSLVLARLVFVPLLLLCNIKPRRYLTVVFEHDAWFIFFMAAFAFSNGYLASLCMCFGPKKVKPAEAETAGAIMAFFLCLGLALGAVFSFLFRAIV
# [5] = Table 1, different ring systems at the 4- and 8-positions
# [6] = Table 2, opening chain analogues
# [7] = Table 3, free hydrogen on the nitrogen of 4- and 8-position substituents
# [8] = Table 4, modification at hydroxyl groups of dipyridamole
smiles,measurement,setting,value
"OCCN(CCO)c1nc(N2CCCCC2)c2nc(N(CCO)CCO)nc(N3CCCCC3)c2n1 [Dipyridamole, 2,6-bis-(diethanolamino)-4,8-di-piperidino-pyrimidopyrimidine]",pIC50,ENT2 [1]; [5],6.51
same,inhibition of hENT4 (in words),hENT4 [2],only weakly inhibits
same,inhibition of hENT4 (in words),hENT4 [2]; listed as dipyridamole,moderate inhibitors
same,pIC50,hENT4 [3]; [5],5.55
same,pKi,ENT2 [4],5.21
OCCNc1nc(N2CCCCC2)c2nc(NCCO)nc(N3CCCCC3)c2n1 [compound 1],pIC50,ENT2 [1]; [5],5.13
same,pIC50,hENT4 [3]; [5],5.66
OCCN(CCO)c1nc(N2CCCC2)c2nc(N(CCO)CCO)nc(N3CCCC3)c2n1 [compound 2],pIC50,ENT2 [1]; [5],6.25
OCCN(CCO)c1nc(N2CCOCC2)c2nc(N(CCO)CCO)nc(N3CCOCC3)c2n1 [compound 4],pIC50,ENT2 [1]; [5],5.39
CC(C)(C)OC(=O)N1CCN(c2nc(N(CCO)CCO)nc3c(N4CCN(C(=O)OC(C)(C)C)CC4)nc(N(CCO)CCO)nc23)CC1 [compound 7],pIC50,hENT1; [5],6.24
same,pIC50,ENT2 [1]; [5],5.65
OCCN(CCO)c1nc(N2CCCCCC2)c2nc(N(CCO)CCO)nc(N3CCCCCC3)c2n1 [compound 11],pIC50,ENT2 [1]; [5],6.93
same,pIC50,hENT4 [3]; [5],6.42
OCCN(CCO)c1nc(N2CCCCCCC2)c2nc(N(CCO)CCO)nc(N3CCCCCCC3)c2n1 [compound 13],pIC50,ENT2 [1]; [5],7.04
same,pIC50,hENT4 [3]; [5],6.39
OCCNc1nc(N2CCCCCCC2)c2nc(NCCO)nc(N3CCCCCCC3)c2n1 [compound 14],pIC50,ENT2 [1]; [5],5.28
same,pIC50,hENT4 [3]; [5],6.74
OCCN(CCO)c1nc(N2CCCCCCCC2)c2nc(N(CCO)CCO)nc(N3CCCCCCCC3)c2n1 [compound 15],pIC50,ENT2 [1]; [5],5.63
same,pIC50,hENT4 [3]; [5],5.88
OCCN(CCO)c1nc(N2C3CCCC2CC3)c2nc(N(CCO)CCO)nc(N3C4CCCC3CC4)c2n1 [compound 17],pIC50,ENT2 [1]; [5],6.49
OCCN(CCO)c1nc(N2CC3CC4CC(C3)CC2C4)c2nc(N(CCO)CCO)nc(N3CC4CC5CC(C4)CC3C5)c2n1 [compound 19],pIC50,hENT1; [5],6.41
same,pIC50,hENT4 [3]; [5],6.70
OCCNc1nc(N2CC3CC4CC(C3)CC2C4)c2nc(NCCO)nc(N3CC4CC5CC(C4)CC3C5)c2n1 [compound 20],pIC50,hENT1; [5],5.84
same,pIC50,hENT4 [3]; [5],6.22
CCN(CC)c1nc(N(CCO)CCO)nc2c(N(CC)CC)nc(N(CCO)CCO)nc12 [compound 23],pIC50,ENT2 [1]; [6],5.53
same,pIC50,hENT4 [3]; [6],5.38
CCCN(CCC)c1nc(N(CCO)CCO)nc2c(N(CCC)CCC)nc(N(CCO)CCO)nc12 [compound 25],pIC50,hENT1; [6],6.71
same,pIC50,ENT2 [1]; [6],5.42
same,pIC50,hENT4 [3]; [6],6.63
CCCCN(CCCC)c1nc(N(CCO)CCO)nc2c(N(CCCC)CCCC)nc(N(CCO)CCO)nc12 [compound 27],pIC50,ENT2 [1]; [6],5.48
same,pIC50,hENT4 [3]; [6],5.53
CC(C)CN(CC(C)C)c1nc(N(CCO)CCO)nc2c(N(CC(C)C)CC(C)C)nc(N(CCO)CCO)nc12 [compound 29],pIC50,hENT1; [6],5.58
same,pIC50,ENT2 [1]; [6],5.71
same,pIC50,hENT4 [3]; [6],5.77
CCCCCN(CCCCC)c1nc(N(CCO)CCO)nc2c(N(CCCCC)CCCCC)nc(N(CCO)CCO)nc12 [compound 31],pIC50,hENT4 [3]; [6],4.34
CC(C)CCN(CCC(C)C)c1nc(N(CCO)CCO)nc2c(N(CCC(C)C)CCC(C)C)nc(N(CCO)CCO)nc12 [compound 33],pIC50,hENT4 [3]; [6],4.35
COCCN(CCOC)c1nc(N(CCO)CCO)nc2c(N(CCOC)CCOC)nc(N(CCO)CCO)nc12 [compound 35],pIC50,hENT1; [6],6.27
same,pIC50,ENT2 [1]; [6],5.68
same,pIC50,hENT4 [3]; [6],3.99
OCCN(CCO)c1nc(N(Cc2ccccc2)Cc2ccccc2)c2nc(N(CCO)CCO)nc(N(Cc3ccccc3)Cc3ccccc3)c2n1 [compound 37],pIC50,hENT4 [3]; [6],4.16
CNc1nc(N(CCO)CCO)nc2c(NC)nc(N(CCO)CCO)nc12 [compound 40],pIC50,hENT1; [7],5.07
CCNc1nc(N(CCO)CCO)nc2c(NCC)nc(N(CCO)CCO)nc12 [compound 42],pIC50,hENT1; [7],6.11
CCCNc1nc(N(CCO)CCO)nc2c(NCCC)nc(N(CCO)CCO)nc12 [compound 44],pIC50,ENT2 [1]; [7],5.46
same,pIC50,hENT4 [3]; [7],4.79
CC(C)Nc1nc(N(CCO)CCO)nc2c(NC(C)C)nc(N(CCO)CCO)nc12 [compound 46],pIC50,ENT2 [1]; [7],5.52
same,pIC50,hENT4 [3]; [7],4.58
CCCCNc1nc(N(CCO)CCO)nc2c(NCCCC)nc(N(CCO)CCO)nc12 [compound 48],pIC50,ENT2 [1]; [7],5.55
same,pIC50,hENT4 [3]; [7],5.73
CC(C)CNc1nc(N(CCO)CCO)nc2c(NCC(C)C)nc(N(CCO)CCO)nc12 [compound 50],pIC50,hENT1; [7],6.90
same,pIC50,ENT2 [1]; [7],5.83
same,pIC50,hENT4 [3]; [7],5.51
CC(C)(C)Nc1nc(N(CCO)CCO)nc2c(NC(C)(C)C)nc(N(CCO)CCO)nc12 [compound 52],pIC50,hENT4 [3]; [7],6.12
CCCCCNc1nc(N(CCO)CCO)nc2c(NCCCCC)nc(N(CCO)CCO)nc12 [compound 54],pIC50,ENT2 [1]; [7],5.32
same,pIC50,hENT4 [3]; [7],6.22
CC(C)CCNc1nc(N(CCO)CCO)nc2c(NCCC(C)C)nc(N(CCO)CCO)nc12 [compound 56],pIC50,ENT2 [1]; [7],5.71
same,pIC50,hENT4 [3]; [7],6.31
CCC(C)(C)Nc1nc(N(CCO)CCO)nc2c(NC(C)(C)CC)nc(N(CCO)CCO)nc12 [compound 58],pIC50,hENT1; [7],7.10
same,pIC50,hENT4 [3]; [7],6.09
OCCN(CCO)c1nc(NC2CC2)c2nc(N(CCO)CCO)nc(NC3CC3)c2n1 [compound 60],pIC50,ENT2 [1]; [7],5.57
same,pIC50,hENT4 [3]; [7],4.42
OCCN(CCO)c1nc(NC2CCC2)c2nc(N(CCO)CCO)nc(NC3CCC3)c2n1 [compound 62],pIC50,ENT2 [1]; [7],6.14
same,pIC50,hENT4 [3]; [7],4.80
OCCNc1nc(NC2CCC2)c2nc(NCCO)nc(NC3CCC3)c2n1 [compound 63],pIC50,hENT1; [7],5.73
same,pIC50,ENT2 [1]; [7],5.11
OCCN(CCO)c1nc(NC2CCCC2)c2nc(N(CCO)CCO)nc(NC3CCCC3)c2n1 [compound 64],pIC50,ENT2 [1]; [7],5.88
same,pIC50,hENT4 [3]; [7],4.91
OCCN(CCO)c1nc(NC2CCCCC2)c2nc(N(CCO)CCO)nc(NC3CCCCC3)c2n1 [compound 66],pIC50,hENT4 [3]; [7],3.91
OCCN(CCO)c1nc(Nc2ccccc2)c2nc(N(CCO)CCO)nc(Nc3ccccc3)c2n1 [compound 68],pIC50,hENT1; [7],5.95
OCCNc1nc(NCc2ccccc2)c2nc(NCCO)nc(NCc3ccccc3)c2n1 [compound 71],pIC50,hENT4 [3]; [7],5.75
OCCOc1nc(N2CCCCC2)c2nc(OCCO)nc(N3CCCCC3)c2n1 [compound 72],pIC50,ENT2 [1]; [8],5.75
C1CCN(c2nc(N3CCOCC3)nc3c(N4CCCCC4)nc(N4CCOCC4)nc23)CC1 [compound 73],pIC50,hENT1; [8],5.79
O=COCCN(CCOC=O)c1nc(N2CCCCC2)c2nc(N(CCOC=O)CCOC=O)nc(N3CCCCC3)c2n1 [compound 74],pIC50,hENT1; [8],7.16
same,pIC50,ENT2 [1]; [8],6.27
CC(=O)OCCN(CCOC(C)=O)c1nc(N2CCCCC2)c2nc(N(CCOC(C)=O)CCOC(C)=O)nc(N3CCCCC3)c2n1 [compound 75],pIC50,ENT2 [1]; [8],6.15
same,pIC50,hENT4 [3]; [8],4.85
COCCN(CCOC)c1nc(N2CCCCC2)c2nc(N(CCOC)CCOC)nc(N3CCCCC3)c2n1 [compound 76],pIC50,ENT2 [1]; [8],5.83
same,pIC50,hENT4 [3]; [8],5.74
CCOCCN(CCOCC)c1nc(N2CCCCC2)c2nc(N(CCOCC)CCOCC)nc(N3CCCCC3)c2n1 [compound 77],pIC50,hENT1; [8],6.11
same,pIC50,hENT4 [3]; [8],4.52
CCCOCCN(CCOCCC)c1nc(N2CCCCC2)c2nc(N(CCOCCC)CCOCCC)nc(N3CCCCC3)c2n1 [compound 78],pIC50,hENT4 [3]; [8],3.85
CC(C)OCCN(CCO)c1nc(N2CCCCC2)c2nc(N(CCO)CCOC(C)C)nc(N3CCCCC3)c2n1 [compound 79],pIC50,hENT1; [8],7.17
same,pIC50,ENT2 [1]; [8],6.76
COc1cc(C(=O)OCCCN2CCCN(CCCOC(=O)c3cc(OC)c(OC)c(OC)c3)CC2)cc(OC)c1OC [dilazep],pKi,ENT2 [4],3.87
